{"source": "patent US8492341B2", "about": "“Amyloid-β binding peptides” (Alzyme Pty Ltd., priority 2006, dated 2013)", "key": {"Aβ": {"biological_target": "Aβ (Homo sapiens, UniProt P05067)", "sequence (P05067 672-713 limits assumed)": "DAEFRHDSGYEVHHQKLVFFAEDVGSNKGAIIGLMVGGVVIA", "experiment": "Copper-induced Aβ oligomer generation (SDS-PAGE, WO2 immunoblot)", "assay_type": "biochemical", "conditions": "Aβ 5 uM, Cu+2 25 μM, 0-1000 μM peptide, 37 C, 24 hours; vs reverse peptide control", "description": "Incubation of Aβ with copper generates cross-linked oligomeric species (Atwood et al., 2000: Cell Mol Biol, 46: 777-783; Atwood et al., 2004: Biochemistry, 43: 560-568). In this experiment, Aβ (5 uM) is incubated with Cu+2 (25 μM) and 0-1000 μM of the modified peptides at 37 C for 24 hours. After the incubation period, 20 ng is loaded onto an SDS-PAGE gel and immunoblotted with WO2 antibody. Compared to the reverse peptide control, all the modified peptides inhibited the generation of Aβ oligomers at various concentration."}, "human Aβ42": {"system": "human Aβ42", "experiment": "MTS cell viability assay of MP2 analogues, cells treated with human Aβ42 (20 μM)", "assay_type": "cell-based", "conditions": "peptide 400 μM", "description": "FIG. 7 illustrates the effect of various peptide analogues of the peptide analogue of SEQ ID NO:2 on cell viability associated with human Aβ1-42. Cells were treated with human Aβ42 peptide (20 μM) in the absence or presence of increasing doses of MP2, MP4, MP5 or MP6 (n=6, for each peptide). Cell viability was assessed by the MTS assay.\nCells were treated with human Aβ42 peptide (20 μM) in the absence or presence of increasing doses of MP2, MP4, MP5 or MP6 (n=6, for each peptide). Cell viability was assessed by the MTS assay."}, "[1]": {"design": "species or system mice (129×1 strain)", "conditions": "mouse, in vivo", "description": "Another essential requirement of drug development is the ability of the peptide to cross the BBB and impact on targeted tissue. To measure the ability of 15merTNP and peptide analogue MP2 to cross the BBB, intracerebroventricular (i.c.v) delivery was assessed. The use of i.c.v injections on animal models allows for high doses to be delivered straight to the ventricular spaces where it can cross the parenchyma layer to the brain matter.\nFor i.c.v injections, control mice (129×1 strain) were anesthetized with intraperitoneal ketamine/xylazine at a dose of 10 ml/kg and then administered with 200 μg of either peptide (90 nmol). Both radioactive (^3H-labelled; hot) and non-radioactive (cold) was used to allow physiological doses of peptide to be delivered.\nTo determine whether the peptides had effectively penetrated into the brain parenchyma, a capillary depletion experiment was performed. After 25 min post injection the animal was sacrificed and the brain removed. This was homogenized and centrifuged for 10 min at 13000 rpm at 4° C. resulting in a supernatant containing predominately radioactivity from the cortex and a pellet with radioactivity from the capillaries and endothelium. A comparison of radioactivity in each sample was conducted to assess percentage of peptide movement into the cortex. The amount of radioactivity in the capillary pellet of mice that were perfused and not perfused with saline solution was compared to determine the percentage of peptide bound to the luminal surface of the capillaries and sequestered by brain endothelial cells.\nA detailed necropsy was performed on each animal following perfusion to thoroughly assess peptide movement throughout peripheral organs, central nervous tissue and blood. […] Thus the concentration of labelled tritium could be measured per mass of sample and using this and the known ratio of non-labelled peptide present, the concentration of total peptide could be determined.\nThe pharmacokinetic profile of peptide analogue MP2 over four time points, post i.c.v injection into the CNS was determined. […]"}, "human Aβ1-42 [2]": {"biological_target": "T1, human Aβ1-42 (Homo sapiens, UniProt P05067)", "T1 sequence (P05067 672-713)": "as the sequence (P05067 672-713 limits assumed) above", "experiment": "DCF fluorescence assay of H2O2 production (SOD-like activity) by human Aβ1-42", "assay_type": "biochemical", "conditions": "200 nM peptide, Aβ1-42 200 nM", "description": "The three candidate peptides (15merTNP, 6merPLP and 6merMTM) were examined to determine whether they could attenuate Aβ's SOD-like activity in vitro. A DCF fluorescence assay was used to assess the efficacy of these peptides on altering the production of physiological (brain) concentrations (200 nM) of human Aβ1-42.\nAβ species were prepared and the assay run as described previously (i.e. Aβ1-42 at 200 nM and Copper and Dopamine concentrations remain unchanged). Peptide analogue MP2 (SEQ ID NO:2) was added to Aβ1-42+Cu solutions at ratios ranging from 0.005:1 to 10.0:1 (i.e. a ration of 0.005:1 would contain 1 nM of respective peptide). The peptide was dissolved in PBS pH7.5. The effect of MP2 on H2O2 production by human Aβ1-42 was determined in triplicate in three separate experiments (i.e. n=9) for doses ranging from 100 to 2000 nM (FIG. 1). These were compared against the level of H2O2 produced by human Aβ1-42 [test peptide analogue MP2+positive control peptide 15merTNP; three experiments done in triplicate, […]]. All data are presented as means±SEM.\nFor all assays run, the 15merTNP peptide (SEQ ID NO: 3), was included as a positive control for the assay and for comparing its activity with that of the modelled peptide analogue MP2. The effect of 15merTNP (200 nM) on H2O2 production by human Aβ1-42, was determined in triplicate in each of the 12 DCF assays (i.e. n=36) performed in this study."}, "M17 Neuroblastoma cells": {"system": "M17 Neuroblastoma cells", "experiment": "MTS cell viability assay, cell death induced by human Aβ1-42 (40 μM)", "assay_type": "cell-based", "conditions": "for reduction of cell death associated with human Aβ1-42: Aβ1-42 40 μM", "description": "M17 Neuroblastoma cells were seeded in a 48 well plate at a density of 50,000 cells per well. The plate was incubated for 24 hours at 37° C. in media (OPTI-MEM) containing 10% FCS. The next day the cells were treated with human Aβ1-42 (40 μM) in the presence or absence of the peptides 15merTNP or peptide analogue MP2 (FIG. 2). The peptides were provided at concentrations ranging from 20-400 μM prepared in Neuro basal media containing B27 supplement without antioxidants. Following incubation (4 days at 37° C.), cell viability was assessed using the CellTiter 96® AQueous One Solution cell proliferation assay (MTS; Promega, Wis., USA) as per manufactures instructions. Briefly, 200 μl of MTS reagent (1/10 dilution) was added directly to the culture wells and the plate incubated for 3 hours at 37° C. Following incubation, 150 μl of the solution was transferred to a 96 well plate and the absorbance is determined spectrophotometrically at 490 nm.\nSimilar to the MTT assay, the MTS assay is a colorimetric method for determining the number of viable cells in proliferation or cytotoxicity assays. The principle of the MTS assay is the same as the MTT assay, except for the tetrazolium compound that is bio-reduced by the mitochondria of the cells, forming a coloured formazan product that is soluble (rather than insoluble for the MTT assay) in tissue culture medium. This conversion is accomplished by NADPH or NADH produced by dehydrogenase enzymes in metabolically active cells: Berridge M V. And Tan A. S. (1993) Characterisation of the cellular reduction of 3-(4,5-dimethylthiazol-2-yl)-2,5-diphenyltetrazolium bromide (MTT): Subcellular localisation, substrate dependence and involvement of mitochondrial electron transport in MTT reduction. Arch. Biochem. Biophys. 303, 474-82.\nThe effect of human Aβ1-42 (40 μM) on cell viability was determined in triplicate in each of the 10 MTS assays (i.e. n=30) performed in this study. All data are presented as means±SEM.\nThe effect of peptide analogue MP2 to protect against human Aβ42-induced toxicity was then determined using the MTS assay in triplicate in two separate experiments for all doses (i.e. n=6), unless otherwise specified. The effectiveness of MP2 was compared against the 15merTNP."}, "[3]": {"experiment": "In vitro peptide stability in 10% rodent brain homogenate", "assay_type": "in vitro ADME, rat", "conditions": "10% brain homogenate, 37° C.", "description": "For the peptide stability assay in vitro, both 15merTNP and peptide analogue MP2 were incubated separately with fresh 10% rodent brain homogenate to model degradation in tissues. In order to create a physiological dose of peptide in the in vitro assay, both radioactive (^3H-labelled; hot) and non-radioactive (cold) peptides were combined in a set ratio. Cold peptide was added at a dose of […] per ml of 10% brain homogenate. Hot peptide was added at a dose of 250 μCi per ml 10% brain homogenate. Following the addition of hot and cold peptide; the homogenate was vortexed and incubated for different time points. The reaction was stopped by adding complete protease inhibitor cocktail and the samples analysed.\nThe biological stability of the peptides was evaluated by incubating them (90 nmol) in fresh 10% rodent brain homogenate for different times at 37° C. The amount of intact peptide was estimated by running the supernatant of the homogenate on a 16% Tricine gel to separate peptide that had not had its amino acid sequence degraded. FIG. 3 illustrates the relative stability of 15merTNP and peptide analogue MP2 over two hours run on a 16% Tricine gel from time 0-120 min with samples run in duplicate. The values correspond to the in vitro half-life, which is defined as the time needed for 50% degradation of the peptide."}, "human Aβ1-42 [4]": {"biological_target": "T1, human Aβ1-42", "conditions": "DCF fluorescence assay, 200 nM human Aβ1-42; earlier work PCT/AU02/01754; cited from earlier work"}}, "note": "Square brackets hold non-standard residues; d marks the D form."}
{"substance": "Ac-Arg-Thr-Pro-Gln-Met-Leu-Lys-NH2 (Ac-RTPQMLK-NH2) [MP4]", "values": [{"measurement": "inhibition of Aβ oligomer formation", "setting": "Aβ", "value": "most potent"}]}
{"substance": "Ac-DArg-DLys-DLeu-DMet-DGln-DPro-DThr-DArg-DAsn-NH2 (Ac-[dR][dK][dL][dM][dQ][dP][dT][dR][dN]-NH2; SMILES CSCC[C@@H](NC(=O)[C@@H](CC(C)C)NC(=O)[C@@H](CCCCN)NC(=O)[C@@H](CCCNC(=N)N)NC(C)=O)C(=O)N[C@H](CCC(N)=O)C(=O)N1CCC[C@@H]1C(=O)N[C@@H](C(=O)N[C@H](CCCNC(=N)N)C(=O)N[C@H](CC(N)=O)C(N)=O)[C@H](C)O) [MP6]", "values": [{"measurement": "cell viability following treatment with human Aβ42", "setting": "human Aβ42", "value": "significantly increased"}]}
{"substance": "Ac-Thr-Arg-Thr-Pro-Gln-Met-Leu-Arg-Lys-NH2 (Ac-TRTPQMLRK-NH2) [MP5]", "values": [{"measurement": "inhibition of Aβ oligomer formation", "setting": "Aβ", "value": "most potent"}, {"measurement": "cell viability following treatment with human Aβ42", "setting": "human Aβ42", "value": "significantly increased"}]}
{"substance": "H-TNPNRRNRTPQMLKR-OH [15merTNP, Thr-Asn-Pro-Asn-Arg-Arg-Asn-Arg-Thr-Pro-Gln-Met-Leu-Lys-Arg, reference compound]", "values": [{"measurement": "crossing of the blood brain barrier", "setting": "[1]", "value": "poorly"}, {"measurement": "reduction of human Aβ1-42's H2O2 production", "setting": "human Aβ1-42 [2]", "value": "around 30%"}, {"measurement": "reduction of cell death associated with human Aβ1-42", "setting": "M17 Neuroblastoma cells; 80 μM peptide", "value": 20, "unit": "%"}, {"measurement": "reduction of cell death associated with human Aβ1-42", "setting": "M17 Neuroblastoma cells; 200 μM peptide", "value": 30, "unit": "%"}, {"measurement": "Stability in rat brain homogenate (in vitro half-life)", "setting": "[3]", "value": "<45", "unit": "min"}, {"measurement": "half-life at 2.5 mmol per ml", "setting": "[3]; rat, fresh 10% brain homogenate", "value": "< 45", "unit": "min"}, {"measurement": "ability to modify Aβ1-42's SOD-like activity", "setting": "human Aβ1-42 [4]", "value": "possessed the ability to modify Aβ1-42's SOD-like activity"}]}
{"substance": "human Aβ1-42: beta amyloid peptide used as toxic agent in the cell viability assays [reference compound]", "values": [{"measurement": "reduction of cell viability", "setting": "M17 Neuroblastoma cells; human Aβ1-42 40 μM alone, 4 days", "value": "≤ 35", "unit": "%"}]}
